Measured values from PMC11233931, “Remodeling tumor‐associated macrophage for anti‐cancer effects by rational design of irreversible inhibition of mitogen‐activated protein kinase‐activated protein kinase 2” (MedComm, 2024).

Assays:
Test in all cases: Eurofins kinase selectivity profile against 380 other human recombinant kinases (Table S2)
Format in all cases: biochemical
[1] = biological target: T1, 380 human recombinant protein kinases (Homo sapiens, UniProt P54760); settings: EphB4(h), read-out: Inhibition rate
T1 construct: purchased Eurofins (Celle Lévescault)
T1 sequence (P54760 16-987): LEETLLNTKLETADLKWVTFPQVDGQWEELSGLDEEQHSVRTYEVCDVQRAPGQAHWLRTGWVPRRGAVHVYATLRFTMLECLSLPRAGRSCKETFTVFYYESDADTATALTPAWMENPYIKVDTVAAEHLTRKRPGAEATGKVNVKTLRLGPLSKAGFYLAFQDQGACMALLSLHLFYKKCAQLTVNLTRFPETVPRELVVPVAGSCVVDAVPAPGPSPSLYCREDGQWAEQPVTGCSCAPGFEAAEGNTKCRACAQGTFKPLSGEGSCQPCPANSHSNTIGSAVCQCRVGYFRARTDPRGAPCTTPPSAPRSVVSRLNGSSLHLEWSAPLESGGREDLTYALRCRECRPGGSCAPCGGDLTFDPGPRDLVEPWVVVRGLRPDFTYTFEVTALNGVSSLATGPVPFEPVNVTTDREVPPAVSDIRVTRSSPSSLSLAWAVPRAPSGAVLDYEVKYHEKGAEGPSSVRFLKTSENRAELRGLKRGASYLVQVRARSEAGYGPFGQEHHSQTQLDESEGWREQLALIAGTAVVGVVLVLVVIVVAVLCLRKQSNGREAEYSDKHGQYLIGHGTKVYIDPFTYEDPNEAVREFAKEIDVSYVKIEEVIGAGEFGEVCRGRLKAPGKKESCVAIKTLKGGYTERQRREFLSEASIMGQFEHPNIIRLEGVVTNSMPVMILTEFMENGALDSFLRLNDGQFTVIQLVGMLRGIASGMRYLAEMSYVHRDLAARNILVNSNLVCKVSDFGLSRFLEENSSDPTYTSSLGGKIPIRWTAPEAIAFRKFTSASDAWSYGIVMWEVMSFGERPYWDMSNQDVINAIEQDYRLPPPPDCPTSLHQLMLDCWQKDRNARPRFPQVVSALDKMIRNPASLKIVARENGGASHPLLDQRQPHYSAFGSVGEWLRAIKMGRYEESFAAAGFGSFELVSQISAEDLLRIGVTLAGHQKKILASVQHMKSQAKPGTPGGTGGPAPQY
Procedure, shortened: (§1)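 Values come from a contract kinase-profiling service that tested the compound at multiple concentrations across 380 recombinant human kinases, as an off-target check against the MK2 activity.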

[2] = biological target: T2, 380 human recombinant protein kinases (Homo sapiens, UniProt O15111); settings: IKKα(h), read-out: Inhibition rate
T2 construct: purchased Eurofins (Celle Lévescault)
T2 sequence (O15111 1-745): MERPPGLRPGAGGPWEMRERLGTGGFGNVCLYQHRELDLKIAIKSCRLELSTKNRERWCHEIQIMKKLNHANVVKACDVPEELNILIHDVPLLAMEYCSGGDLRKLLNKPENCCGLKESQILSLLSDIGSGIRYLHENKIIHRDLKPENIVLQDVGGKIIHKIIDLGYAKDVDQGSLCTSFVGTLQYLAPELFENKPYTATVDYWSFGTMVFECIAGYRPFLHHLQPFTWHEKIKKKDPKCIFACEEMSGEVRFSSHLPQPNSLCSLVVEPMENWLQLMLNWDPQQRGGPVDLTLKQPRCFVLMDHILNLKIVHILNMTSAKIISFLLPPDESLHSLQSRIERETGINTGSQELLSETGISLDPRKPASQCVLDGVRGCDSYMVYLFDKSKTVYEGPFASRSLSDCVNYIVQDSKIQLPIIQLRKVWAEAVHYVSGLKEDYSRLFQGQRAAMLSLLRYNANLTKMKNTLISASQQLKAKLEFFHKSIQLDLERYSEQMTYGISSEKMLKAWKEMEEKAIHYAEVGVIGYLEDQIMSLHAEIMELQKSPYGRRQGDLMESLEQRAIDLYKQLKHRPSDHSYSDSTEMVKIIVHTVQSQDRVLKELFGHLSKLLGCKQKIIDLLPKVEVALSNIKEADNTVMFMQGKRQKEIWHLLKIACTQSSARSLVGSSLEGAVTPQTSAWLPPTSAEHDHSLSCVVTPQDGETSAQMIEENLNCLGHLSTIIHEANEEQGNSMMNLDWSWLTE
Procedure, shortened: as §1

[3] = biological target: T3, 380 human recombinant protein kinases (Homo sapiens, UniProt Q15375); settings: EphA7(h), read-out: Inhibition rate
T3 construct: purchased Eurofins (Celle Lévescault)
Procedure, shortened: as §1

[4] = biological target: T4, 380 human recombinant protein kinases (Homo sapiens, UniProt O94768); settings: DRAK2(h), read-out: Inhibition rate
T4 construct: purchased Eurofins (Celle Lévescault)
T4 sequence (O94768 1-372): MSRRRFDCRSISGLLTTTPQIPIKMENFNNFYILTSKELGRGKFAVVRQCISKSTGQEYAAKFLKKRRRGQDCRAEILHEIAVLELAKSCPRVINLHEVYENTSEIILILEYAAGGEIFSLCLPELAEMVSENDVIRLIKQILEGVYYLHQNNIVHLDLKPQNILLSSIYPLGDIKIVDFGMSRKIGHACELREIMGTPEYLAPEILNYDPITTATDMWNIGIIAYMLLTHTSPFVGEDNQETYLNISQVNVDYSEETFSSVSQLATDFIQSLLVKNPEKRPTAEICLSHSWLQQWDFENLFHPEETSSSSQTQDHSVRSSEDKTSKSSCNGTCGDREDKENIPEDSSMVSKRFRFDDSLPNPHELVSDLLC
Procedure, shortened: as §1

[5] = biological target: T5, 380 human recombinant protein kinases (Homo sapiens, UniProt Q15119); settings: PDHK2(h), read-out: Inhibition rate
T5 construct: purchased Eurofins (Celle Lévescault)
Procedure, shortened: as §1

[6] = biological target: T6, 380 human recombinant protein kinases (Homo sapiens, UniProt Q9H4A3); settings: WNK1(h), read-out: Inhibition rate (%)
T6 construct: purchased Eurofins (Celle Lévescault)
Procedure, shortened: as §1

T6 sequence (Q9H4A3 whole entry): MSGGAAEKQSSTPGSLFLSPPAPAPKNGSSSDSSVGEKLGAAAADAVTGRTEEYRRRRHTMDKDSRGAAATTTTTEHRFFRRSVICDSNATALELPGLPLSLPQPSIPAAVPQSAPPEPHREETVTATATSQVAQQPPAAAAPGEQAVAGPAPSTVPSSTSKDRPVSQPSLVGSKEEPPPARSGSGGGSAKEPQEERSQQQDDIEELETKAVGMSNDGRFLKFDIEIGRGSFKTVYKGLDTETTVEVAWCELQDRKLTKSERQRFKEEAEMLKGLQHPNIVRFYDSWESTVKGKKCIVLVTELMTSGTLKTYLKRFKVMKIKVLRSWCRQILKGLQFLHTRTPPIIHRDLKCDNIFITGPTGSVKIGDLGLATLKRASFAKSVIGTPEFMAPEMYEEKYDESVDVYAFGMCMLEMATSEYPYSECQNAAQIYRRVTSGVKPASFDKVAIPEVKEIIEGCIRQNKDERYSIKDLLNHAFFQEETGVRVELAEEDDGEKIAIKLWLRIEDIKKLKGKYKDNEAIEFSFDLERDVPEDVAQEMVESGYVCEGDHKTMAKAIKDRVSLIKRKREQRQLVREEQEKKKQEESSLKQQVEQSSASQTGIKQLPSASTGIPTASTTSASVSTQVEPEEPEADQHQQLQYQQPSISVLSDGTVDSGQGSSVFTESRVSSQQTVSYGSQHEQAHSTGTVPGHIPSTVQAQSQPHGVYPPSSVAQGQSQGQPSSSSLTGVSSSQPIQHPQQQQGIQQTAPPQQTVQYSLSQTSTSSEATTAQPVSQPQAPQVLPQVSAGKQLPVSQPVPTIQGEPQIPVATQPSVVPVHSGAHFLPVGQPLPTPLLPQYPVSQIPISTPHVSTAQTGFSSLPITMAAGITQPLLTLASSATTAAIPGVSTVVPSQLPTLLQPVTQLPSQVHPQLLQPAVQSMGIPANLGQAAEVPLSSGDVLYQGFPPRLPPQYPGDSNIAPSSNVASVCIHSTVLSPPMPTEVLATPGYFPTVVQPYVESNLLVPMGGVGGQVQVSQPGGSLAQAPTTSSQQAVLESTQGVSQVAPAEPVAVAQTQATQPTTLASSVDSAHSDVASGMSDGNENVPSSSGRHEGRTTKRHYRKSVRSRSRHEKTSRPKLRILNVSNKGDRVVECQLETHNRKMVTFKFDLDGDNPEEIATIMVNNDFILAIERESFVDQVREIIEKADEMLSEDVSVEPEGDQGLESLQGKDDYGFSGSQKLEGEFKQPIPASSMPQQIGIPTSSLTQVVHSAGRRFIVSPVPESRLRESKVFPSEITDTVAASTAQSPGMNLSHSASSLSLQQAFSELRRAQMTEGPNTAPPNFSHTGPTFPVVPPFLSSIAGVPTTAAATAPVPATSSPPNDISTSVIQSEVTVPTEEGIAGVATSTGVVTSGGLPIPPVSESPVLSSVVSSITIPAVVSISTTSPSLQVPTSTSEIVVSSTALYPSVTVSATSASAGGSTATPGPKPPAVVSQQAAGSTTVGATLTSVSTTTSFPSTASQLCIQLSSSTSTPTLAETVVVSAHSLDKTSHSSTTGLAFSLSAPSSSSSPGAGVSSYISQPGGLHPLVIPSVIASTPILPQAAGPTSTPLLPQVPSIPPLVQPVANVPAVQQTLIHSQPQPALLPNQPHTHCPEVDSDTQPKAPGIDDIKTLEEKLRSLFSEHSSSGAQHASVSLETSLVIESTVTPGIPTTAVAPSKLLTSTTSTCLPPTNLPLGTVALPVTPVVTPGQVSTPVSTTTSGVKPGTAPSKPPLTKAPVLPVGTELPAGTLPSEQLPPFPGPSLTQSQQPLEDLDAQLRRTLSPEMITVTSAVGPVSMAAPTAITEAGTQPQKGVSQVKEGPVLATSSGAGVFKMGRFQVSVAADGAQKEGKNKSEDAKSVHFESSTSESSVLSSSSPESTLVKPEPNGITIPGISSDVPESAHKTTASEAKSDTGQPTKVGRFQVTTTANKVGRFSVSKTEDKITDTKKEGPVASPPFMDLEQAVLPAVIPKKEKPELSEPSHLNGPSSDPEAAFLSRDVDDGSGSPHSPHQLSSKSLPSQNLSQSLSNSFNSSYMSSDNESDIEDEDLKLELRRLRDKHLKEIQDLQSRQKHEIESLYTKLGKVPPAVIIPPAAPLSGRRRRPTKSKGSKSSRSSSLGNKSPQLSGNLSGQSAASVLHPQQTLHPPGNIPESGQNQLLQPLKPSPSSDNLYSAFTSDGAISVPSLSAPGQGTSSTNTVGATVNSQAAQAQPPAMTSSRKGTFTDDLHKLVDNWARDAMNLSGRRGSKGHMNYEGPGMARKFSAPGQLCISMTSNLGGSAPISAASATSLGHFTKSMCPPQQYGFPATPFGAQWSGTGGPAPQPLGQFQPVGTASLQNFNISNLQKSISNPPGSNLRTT
T3 sequence (Q15375 28-998): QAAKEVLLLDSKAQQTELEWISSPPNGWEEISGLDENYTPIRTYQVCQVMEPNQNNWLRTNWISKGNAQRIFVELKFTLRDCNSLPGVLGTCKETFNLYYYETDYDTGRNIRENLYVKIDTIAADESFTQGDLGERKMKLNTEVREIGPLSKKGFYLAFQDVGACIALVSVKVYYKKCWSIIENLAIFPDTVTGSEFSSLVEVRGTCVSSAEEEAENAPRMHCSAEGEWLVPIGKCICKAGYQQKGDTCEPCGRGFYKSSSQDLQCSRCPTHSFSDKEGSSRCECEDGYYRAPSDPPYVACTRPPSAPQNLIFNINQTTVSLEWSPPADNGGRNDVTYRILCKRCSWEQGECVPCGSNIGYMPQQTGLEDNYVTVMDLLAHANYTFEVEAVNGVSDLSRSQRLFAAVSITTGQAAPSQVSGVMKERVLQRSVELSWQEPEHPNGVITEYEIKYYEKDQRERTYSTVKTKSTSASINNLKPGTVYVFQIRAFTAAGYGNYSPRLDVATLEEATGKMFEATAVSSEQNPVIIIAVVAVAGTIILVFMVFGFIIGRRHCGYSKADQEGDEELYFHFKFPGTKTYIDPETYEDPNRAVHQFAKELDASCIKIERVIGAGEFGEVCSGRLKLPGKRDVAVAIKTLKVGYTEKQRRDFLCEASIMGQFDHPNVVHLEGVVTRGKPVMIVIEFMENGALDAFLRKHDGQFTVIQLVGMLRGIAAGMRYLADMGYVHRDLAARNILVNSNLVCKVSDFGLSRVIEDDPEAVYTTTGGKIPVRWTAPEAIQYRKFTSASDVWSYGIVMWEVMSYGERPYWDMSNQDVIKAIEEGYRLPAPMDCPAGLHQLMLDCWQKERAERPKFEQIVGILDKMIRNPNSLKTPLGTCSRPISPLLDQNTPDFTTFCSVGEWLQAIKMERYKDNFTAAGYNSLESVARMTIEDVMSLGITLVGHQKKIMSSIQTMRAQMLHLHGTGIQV

For `C=CC(=O)Nc1cc(-c2cc(-c3cc4c([nH]3)CCNC4=O)ccn2)ccc1OC(F)(F)F` [compound 11], the inhibition at 0.01 µM ([1]; 10 nM) was -4%, the inhibition at 0.1 µM ([1]; 100 nM) was -15% and the inhibition at 1 µM ([1]; 1000 nM) was -4%. For the same compound, the inhibition at 0.01 µM ([2]; 10 nM) was -15%, the inhibition at 0.1 µM ([2]; 100 nM) was -14% and the inhibition at 1 µM ([2]; 1000 nM) was -5%. For the same compound, the inhibition at 0.01 µM ([3]; 10 nM) was 3%, the inhibition at 0.1 µM ([3]; 100 nM) was -3% and the inhibition at 1 µM ([3]; 1000 nM) was -11%. For the same compound, the inhibition at 0.01 µM ([4]; 10 nM) was 28%, the inhibition at 0.1 µM ([4]; 100 nM) was 80% and the inhibition at 1 µM ([4]; 1000 nM) was 93%. The inhibition at 0.01 µM ([5]; 10 nM) was -8%, the inhibition at 0.1 µM ([5]; 100 nM) was 6% and the inhibition at 1 µM ([5]; 1000 nM) was 0%. It also gave an inhibition at 0.01 µM ([6]; 10 nM) of 6%, an inhibition at 0.1 µM ([6]; 100 nM) of 2% and an inhibition at 1 µM ([6]; 1000 nM) of 4%.
